Earlier results, collected in patent US20110294815A1, “PROSTACYCLIN ANALOGS” (priority 2008, published 2011).

Settings: patients with hepatic insufficiency vs healthy adults

- reduction of clearance compared to healthy adults: up to 80%
Compound: CCCCC[C@H](O)CC[C@@H]1[C@H]2Cc3cccc(OCC(=O)[O-])c3C[C@H]2C[C@H]1O.[Na+] [treprostinil, (1R,2R,3aS,9aS)-[[2,3,3a,4,9,9a-Hexahydro-2-hydroxy-1-[(3S)-3-hydroxyoctyl]-1H-benz[f]inden-5-yl]oxy]acetic acid monosodium salt]
